Results from patent US20220315567A1 (priority 2016, published 2022).
Structures can show the parent of a compound that is named as a salt. Where two headings read alike, the source gives them in different places.

Legend:
human OPRM1 (μ, MOR) [1] = target: T1, human OPRM1 (μ, MOR) (Homo sapiens, UniProt P35372); type: cell-based; conditions: for ΔRA of compound: relative activity from EC50 and Emax of β-arrestin vs cAMP, lower RA = more G-protein biased
T1 construct: host or cells: CHO-K1
Method: In certain embodiments, the ability of a compound to activate G-protein or β-arrestin is not an on/off switch for a given pathway, but rather a continuous function. To capture this, each compound is measured for activity in cell assays that are linked to β-arrestin recruitment and G-protein signaling. By comparing the activity between these two measures (accounting for both EC50 and maximal response reached, Emax) a relative activity (RA) value is determined.
In the case of MOR it is desirable to have high activation of the G-protein pathway while reducing activation of β-arrestin. In the case of the formula above, this means a lower RA.

human OPRM1 (μ, MOR) [2] = target: T1, human OPRM1 (μ, MOR); test: cell-based; conditions: for Emax: OPRM1, read-out: β-Arrestin Emax; for EC50: PathHunter human OPRM1 Arrestin CHO-K1 cell line, read-out: β-Arrestin EC50
Method: The Discoverx PathHunter® β-Arrestin assay is used to measure β-arrestin-2 activity. The technology is based on Enzyme Fragment Complementation (EFC) with β-galactosidase (β-Gal) as the reporter. […] EA is fused to Q-arrestin-2, and ED is fused to the C-terminus of the GPCR of interest. When a ligand binds and the GPCR is activated, Q-arrestin-2 is recruited to the receptor resulting in an ED/EA complementation, restoring f-Gal activity, which is measured using chemiluminescence. For this assay, the PathHunter human OPRM1 (μ, MOR) Arrestin CHO-K1 cell line was used.

human OPRM1 (μ, MOR) [3] = target: T1, human OPRM1 (μ, MOR); test: cell-based; conditions: for Emax: OPRM1, read-out: cAMP Emax; for EC50: PathHunter human OPRM1 Arrestin CHO-K1 cell line, read-out: cAMP EC50
Method: G-protein signaling was measured via second messenger cAMP modulation. Detection of cAMP modulation was accomplished in the PathHunter human OPRM1 (μ, MOR) Arrestin CHO-K1 cell line using the Dynamic2 cAMP Kit from Cisbio.

T1 sequence (P35372 whole entry): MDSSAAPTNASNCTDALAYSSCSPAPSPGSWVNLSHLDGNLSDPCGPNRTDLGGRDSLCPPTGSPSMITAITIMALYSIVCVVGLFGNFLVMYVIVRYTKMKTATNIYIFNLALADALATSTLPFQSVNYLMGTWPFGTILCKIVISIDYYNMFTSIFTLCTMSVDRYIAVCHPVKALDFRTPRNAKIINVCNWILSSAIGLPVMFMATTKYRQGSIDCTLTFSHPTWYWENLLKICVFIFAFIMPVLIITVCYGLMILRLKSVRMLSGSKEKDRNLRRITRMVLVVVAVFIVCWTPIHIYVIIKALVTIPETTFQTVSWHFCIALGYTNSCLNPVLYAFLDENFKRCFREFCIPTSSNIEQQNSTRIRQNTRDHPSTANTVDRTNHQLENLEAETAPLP

| SMILES | Bias Factor (ΔRA of compound relative to ΔRA of DAMGO) × 10 (human OPRM1 (μ, MOR) [1]) | ΔRA of compound (human OPRM1 (μ, MOR) [1]) | Emax (human OPRM1 (μ, MOR) [2]) [%] | EC50 (human OPRM1 (μ, MOR) [2]) [nM] | Emax (human OPRM1 (μ, MOR) [3]) [%] | EC50 (human OPRM1 (μ, MOR) [3]) [nM] | β-Arrestin Emax (human OPRM1 (μ, MOR) [2]) [%] | cAMP Emax (human OPRM1 (μ, MOR) [3]) [%] |
| --- | --- | --- | --- | --- | --- | --- | --- | --- |
| CN(C)C(CNC(=O)N(C)[C@@H]1CCCc2ccccc21)c1ccsc1 (stereo partly shown) [Compound 45] | <−14.83 | <−2.96 | 8.1 | > 100000 | 101 | 276 | – | – |
| CN(C)C(CNC(=O)N1Cc2ccccc2C1)c1ccccc1 (single isomer, unassigned) [Compound 58] | −1.66 | −1.65 | – | 1890 | – | 132 | 35.2 | 109.1 |
| CN(C)C(CNC(=O)N1Cc2ccc(O)cc2C1)c1ccc(O)cc1 (stereo not shown) [Compound 24, N-(2-(dimethylamino)-2-(4-hydroxyphenyl)ethyl)-5-hydroxyisoindoline-2-carboxamide hydrobromide] | <−14.83 | <−2.96 | < 1 | > 100000 | < 10 | > 100000 | – | – |
| COc1ccc(C(CNC(=O)N2CC[C@H](c3ccccc3)C2)N(C)C)cc1 (stereo partly shown) [Compound 43] | <−14.83 | <−2.96 | < 1 | > 100000 | 54.2 | 1720 | – | – |
| CN(C)C(CNC(=O)N[C@H]1CCc2ccccc2C1)c1ccsc1 (stereo partly shown) [Compound 51] | <−14.83 | <−2.96 | – | > 100000 | – | 29 | <1 | 64.9 |
| CN(C)C(CNC(=O)N1CCCc2ccc(F)cc21)c1ccsc1 (stereo not shown) [Compound 8a, N-(2-(dimethylamino)-2-(thiophen-3-yl)ethyl)-7-fluoro-3,4-dihydroquinoline-1(2H)-carboxamide] | <−14.83 | <−2.96 | 6.18 | > 100000 | 86.9 | 730 | – | – |
| CNC(CNC(=O)N1Cc2cccc(F)c2C1)c1ccsc1 (stereo not shown) [Compound 81] | <−14.83 | <−2.96 | – | > 100000 | – | 14 | 8.2 | 91.6 |
| Cc1ccc2c(c1)CN(C(=O)NCC(c1ccsc1)N(C)C)C2 (stereo not shown) [Compound 12a, N-(2-(Dimethylamino)-2-(thiophen-3-yl)ethyl)-5-methylisoindoline-2-carboxamide hydrochloride] | – | – | 2.16 | > 100000 | 6.33 | > 100000 | – | – |
| CNC(CNC(=O)N1Cc2ccccc2C1)c1ccsc1 (stereo not shown) [Compound 78] | <−14.83 | <−2.96 | – | > 100000 | – | 362 | 12.8 | 104.0 |
| CN(C)C(CNC(=O)N[C@H]1CCc2ccccc2C1)c1ccsc1 (stereo partly shown) [Compound 52] | <−14.83 | <−2.96 | – | > 100000 | – | 227 | <1 | 12.2 |
| CN(C)C(CNC(=O)N1Cc2ccc(F)cc2C1)c1ccc(F)cc1Cl (stereo not shown) [Compound 17a, N-(2-(2-Chloro-4-fluorophenyl)-2-(dimethylamino)ethyl)-5-fluoroisoindoline-2-carboxamide hydrochloride] | −12.08 | −2.69 | 27 | 5120 | 111 | 43 | – | – |
| CN(C)C(CNC(=O)N1CCCc2ccc(O)cc21)c1ccsc1 (stereo not shown) [Compound 49] | <−14.83 | <−2.96 | < 1 | > 100000 | 97 | 998 | – | – |
| CNC(CNC(=O)N1Cc2ccc(F)cc2C1)c1ccc(OC)cc1 (stereo not shown) [Compound 82] | <−14.83 | <−2.96 | – | > 100000 | 83.2 | 457 | 2.7 | – |
| CN(C)C(CNC(=O)N1Cc2ccccc2C1)c1ccc(F)cc1Cl (stereo not shown) [Compound 14a, N-(2-(2-Chloro-4-fluorophenyl)-2-(dimethylamino)ethyl)isoindoline-2-carboxamide hydrochloride] | −5.91 | −2.07 | 61.2 | 3960 | 102 | 56 | – | – |
| CN(C)C(CNC(=O)N1CCCc2ccccc21)c1ccsc1 (stereo not shown) [Compound 9a, N-(2-(dimethylamino)-2-(thiophen-3-yl)ethyl)-3,4-dihydroquinoline-1(2H)-carboxamide hydrochloride] | −6.20 | −2.10 | 5.11 | 4360 | 75.7 | 512 | – | – |
| CN(C)C(CNC(=O)N[C@@H]1CCc2ccc(O)cc2C1)c1ccsc1 (stereo partly shown) [Compound 50] | <−14.83 | <−2.96 | < 1 | > 100000 | 48.3 | 36 | – | – |
| CN(C)C(CNC(=O)N1Cc2cc(F)c(F)cc2C1)c1ccsc1 (stereo not shown) [Compound 6a, N-(2-(dimethylamino)-2-(thiophen-3-yl)ethyl)-5,6-difluoroisoindoline-2-carboxamide hydrochloride] | <−14.83 | <−2.96 | < 1 | > 100000 | 21.9 | 9 | – | – |
| CN(C)C(CNC(=O)N1CCCc2cc(F)ccc21)c1ccsc1 (stereo not shown) [Compound 7a, N-(2-(dimethylamino)-2-(thiophen-3-yl)ethyl)-6-fluoro-3,4-dihydroquinoline-1(2H)-carboxamide hydrochloride] | <−14.83 | <−2.96 | < 1 | > 100000 | 92.1 | 407 | – | – |
| CN(C)C(CNC(=O)N1CCCc2cc(F)ccc21)c1ccccc1 (stereo not shown) [Compound 70a] | −10.82 | −2.56 | 5.3 | 11000 | 90.3 | 512 | – | – |
| CN(C)C1(CNC(=O)N2Cc3ccccc3C2)CCCC1 [Compound 64] | <−14.83 | <−2.96 | < 1 | > 100000 | 88.7 | 2150 | – | – |
| CN(C)[C@H](CCNC(=O)N1CC[C@@H](c2ccccc2)C1)c1ccsc1 [Compound 76] | <−14.83 | <−2.96 | < 1 | > 100000 | 33 | 1760 | – | – |
| CN(C)C(CNC(=O)NC1CCc2ccccc2C1)c1ccccc1 (stereo not shown) [Compound 19a, 1-(2-(Dimethylamino)-2-phenylethyl)-3-(1,2,3,4-tetrahydronaphthalen-2-yl)urea hydrochloride] | <−14.83 | <−2.96 | 2.34 | > 100000 | 86.1 | 32 | – | – |
| C[C@@H](NC(=O)[C@@H](N)Cc1ccc(O)cc1)C(=O)NCC(=O)N(C)[C@@H](Cc1ccccc1)C(=O)NCCO [DAMGO, H-Tyr-D-Ala-Gly-NMe-Phe-Gly-OH, reference compound] | – | – | 98.3 | – | 108 | – | – | – |
| CN(C)C(CNC(=O)N1Cc2ccc(Cl)cc2C1)c1ccsc1 (stereo not shown) [Compound 4a, 5-Chloro-N-(2-(dimethylamino)-2-(thiophen-3-yl)ethyl)isoindoline-2-carboxamide hydrochloride] | – | – | < 1 | > 100000 | 20.7 | > 100000 | – | – |
| COc1ccc2c(c1)CN(C(=O)NCC(c1ccsc1)N(C)C)C2 (stereo not shown) [Compound 5a, N-(2-(Dimethylamino)-2-(thiophen-3-yl)ethyl)-5-methoxyisoindoline-2-carboxamide hydrochloride] | – | – | < 1 | > 100000 | 5 | > 100000 | – | – |
| CN(C)C(CNC(=O)N[C@@H]1CCc2ccccc2C1)c1ccsc1 (stereo partly shown) [Compound 47] | <−14.83 | <−2.96 | – | – | – | – | – | – |
| CN(C)C(CNC(=O)N1CC[C@@H](c2ccccc2)C1)c1ccsc1 (stereo partly shown) [Compound 41] | – | – | < 1 | > 100000 | 9.6 | > 100000 | – | – |
| CN(C)C(CNC(=O)N[C@@H]1CCc2ccccc2C1)c1ccsc1 (stereo partly shown) [Compound 48] | <−14.83 | <−2.96 | – | – | – | – | – | – |
